Here are results for one molecule from US20230071574A1, “ANTI-HAIR LOSS AND HAIR GROWTH INTEGRATED CORE-SHELL MICRONEEDLE PATCH” (Tangyi Holdings (Shenzhen) Limited, priority 2021, published 2023).

The test system of the assay is mouse models with androgenic hair loss. Description: Therapeutic effect of microneedle patches in mouse models with androgenic hair loss built by topical testosterone. Format: in vivo. The settings on record: testosterone-induced androgenic hair loss mice; patches used 15 days, replaced every three days; Minoxidil solution applied daily for 13 days. As to the method: The therapeutic effect of the anti-hair loss and hair growth integrated core-shell microneedle patch is tested, the mouse models with androgenic hair loss are built by topical administration of testosterone solution every day for 28 days, five groups of mouse models with androgenic hair loss are used to test the effect of the microneedle patch, one of the groups is a model group to which only testosterone solution is applied, the blank microneedle patch, the nano-enzyme microneedle patch (prepared in Comparative Example 1) and the core-shell microneedle patch (prepared in Embodiment 1) are used on the other three groups of mouse models with androgenic hair loss respectively, the patches are used for 15 days and replaced every three days, a Minoxidil solution is used for the last group and applied every day for 13 consecutive days. The measurement results are shown in Table 1, and the therapeutic effect of the anti-hair loss and hair growth integrated core-shell microneedle patch is judged by scoring the hair diameter, percentage of Ki67 positive cells and hair cycle.

`Nc1cc(N2CCCCC2)nc(N)[n+]1[O-]` [Minoxidil] displayed a Hair cycle score of 22, a Hair diameter of 11 μm and a Ki67 positive cells of 20%.
